According to patent publication US5089623A, “Certain imidate insecticides” (Imperial Chemical Industries Plc, priority 1990, dated 1992):

Assays:
Assay type in all cases: in vivo
[1] = test system: Housefly [Musca domestica]; test: Housefly insecticidal test (HF); conditions: per 25 female houseflies, 48 hours
[2] = test system: Tobacco Budworm [Heliothis virescens (Fabricius)] eggs; test: Tobacco budworm egg test (TBW-E); conditions: percent in solution
Excerpt: Eggs: Paper towel patches of 2-day old eggs of the tobacco budworm were dipped in acetone solutions of the test compound and placed in petri dishes containing a portion of larval rearing medium. […] Test concentrations ranged from 0.1% downward.

[3] = test system: Cabbage Looper [Trichoplusia ni (Hubner)]; test: Cabbage looper test (CL); conditions: second-instar larvae, 3-5 days, percent in solution

SMILES	LC50 HF [1]	LC50 TBW E [2]	LC50 CL [3]
CCCC(=Nc1ccc(OC)cc1)OCc1cccc(Oc2ccccc2)c1 [Compound 184]	61 µg	> 0.1%	0.024%
CCC(C)C(=Nc1ccc2c(c1)OCO2)OCc1cccc(Oc2ccccc2)c1 (stereo not drawn) [Compound 185]	13 µg	0.075%	0.0006%
CC(C)C(=Nc1ccc2c(c1)OCO2)OCc1cccc(Oc2ccccc2F)c1 [Compound 190]	7.5 µg	0.023%	0.0004%
CC(C)C(=Nc1cccc(C(F)(F)F)c1)OCc1cccc(Oc2cccc(F)c2)c1 [Compound 192]	25 µg	0.07%	0.0012%
CC(C)C(=Nc1ccc(Cl)c(C(F)(F)F)c1)OCc1cccc(Oc2cccc(F)c2)c1 [Compound 195]	> 100 µg	> 0.1%	0.002%
CC(C)C(=Nc1ccc(F)cc1)OCc1cccc(Oc2ccc(F)cc2)c1 [Compound 197]	> 100 µg	0.05%	0.0004%
CC(C)C(=Nc1cccc(F)c1)OCc1cccc(Oc2ccc(F)cc2)c1 [Compound 200]	7.5 µg	0.1%	0.00075%
COc1cccc(N=C(OCc2cccc(Oc3ccc(F)cc3)c2)C(C)C)c1 [Compound 201]	15 µg	> 0.1%	0.004%
CC(C)C(=Nc1ccc(F)cc1)OCc1cccc(Oc2cccc(Cl)c2)c1 [Compound 205]	50 µg	> 0.1%	0.004%
CC(C)C(=Nc1ccc(F)cc1)OCc1cccc(Oc2ccc(F)cc2F)c1 [Compound 206]	50 µg	> 0.1%	0.0017%
CC(C)C(=Nc1ccc(Cl)c(Cl)c1)OCc1cccc(Oc2cccc(Cl)c2)c1 [Compound 207]	> 100 µg	> 0.1%	0.008%
CC(C)C(=Nc1ccc(C#N)cc1)OCc1cccc(Oc2cccc(Cl)c2)c1 [Compound 208]	27 µg	> 0.1%	0.0035%
CCC(C)C(=Nc1ccc(Cl)c(Cl)c1)OCc1cccc(Oc2ccc(F)cc2)c1 (stereo not drawn) [Compound 211]	61 µg	> 0.1%	0.0017%
CC(C)C(=Nc1ccc(F)c(F)c1)OCc1cccc(Oc2ccc(C#N)cc2)c1 [Compound 212]	20 µg	0.045%	0.0005%
CC(C)C(=Nc1ccc(Cl)c(Cl)c1)OCc1cccc(Oc2ccc(F)cc2F)c1 [Compound 213]	> 100 µg	> 0.1%	0.00075%
CC(C)C(=Nc1ccc(F)c(F)c1)OCc1cccc(Oc2ccc(F)cc2F)c1 [Compound 214]	19 µg	0.04%	0.0003%
CC(C)C(=Nc1ccc(F)c(Cl)c1)OCc1cccc(Oc2cc(F)cc(F)c2)c1 [Compound 215]	75 µg	> 0.1%	0.00075%
CC(C)C(=Nc1ccc(Cl)c(Cl)c1)OCc1cccc(Oc2ccc(F)c(F)c2)c1 [Compound 218]	25 µg	0.025%	0.0003%
COc1ccc(Oc2cccc(COC(=Nc3ccc(F)cc3)C(C)C)c2)cc1 [Compound 220]	85 µg	> 0.1%	0.007%
COc1ccc(Oc2cccc(COC(=Nc3ccc(F)c(Cl)c3)C(C)C)c2)cc1 [Compound 221]	62 µg	> 0.1%	0.0027%

SMILES	LC50 HF [1]	LC50 TBW E [2]	LC50 CL [3]
CC(C)C(=Nc1ccc(C#N)c(F)c1)OCc1cccc(Oc2ccc(F)cc2)c1 [Compound 222]	32 µg	> 0.1%	0.0015%
COc1ccc(Oc2cccc(COC(=Nc3ccc(Cl)c(Cl)c3)C(C)C)c2)cc1 [Compound 223]	43 µg	> 0.1%	0.008%
CC(C)(Cl)C(=Nc1ccc(F)c(Cl)c1)OCc1cccc(Oc2ccc(F)cc2)c1 [Compound 224]	> 100 µg	> 0.1%	0.001%
CC(C)C(=Nc1ccc(C#N)cc1)OCc1cccc(Oc2ccc(F)cc2)c1 [Compound 227]	10 µg	0.1%	0.0015%
CC(C)C(=Nc1cccc(Br)c1)OCc1cccc(Oc2ccc(F)cc2)c1 [Compound 229]	20 µg	> 0.1%	0.0005%
Cc1ccc(Oc2cccc(COC(=Nc3ccc(F)cc3)C(C)C)c2)cc1 [Compound 231]	> 100 µg	> 0.1%	0.003%
CC(C)C(=Nc1c(F)c(F)c(F)c(F)c1F)OCc1cccc(Oc2ccc(F)cc2F)c1 [Compound 232]	> 100 µg	> 0.1%	0.004%
CC(C)C(=Nc1ccc(C#N)c(F)c1)OCc1cccc(Oc2ccccc2)c1 [Compound 233]	10 µg	0.09%	0.0017%
CC(C)C(=Nc1ccc(C(C)(C)C)cc1)OCc1cccc(Oc2ccc(F)cc2)c1 [Compound 235]	> 100 µg	> 0.1%	0.004%
Cc1cc(N=C(OCc2cccc(Oc3ccc(F)cc3)c2)C(C)C)ccc1F [Compound 236]	7 µg	0.06%	0.0018%
CC(C)C(=Nc1ccc(Cl)cc1)OCc1cccc(Oc2ccc(Br)cc2)c1 [Compound 237]	50 µg	0.075%	0.0006%
CC(C)C(=Nc1ccc2c(c1)OC(C)(C)O2)OCc1cccc(Oc2ccc(Cl)cc2)c1 [Compound 241]	> 100 µg	> 0.1%	0.0004%
CC(C)C(=Nc1ccc2c(c1)CCO2)OCc1cccc(Oc2ccccc2)c1 [Compound 243]	9 µg	> 0.1%	0.005%
CC(C)C(=Nc1ccc2c(c1)OCO2)OCc1cccc(Oc2ccc(C(F)(F)F)cc2)c1 [Compound 246]	60 µg	> 0.1%	0.004%
CC(C)C(=Nc1ccc(F)c(Cl)c1)OCc1cccc(Oc2ccc(C(F)(F)F)cc2)c1 [Compound 247]	> 100 µg	> 0.1%	0.009%
COc1cc(N=C(OCc2cccc(Oc3ccccc3)c2)C(C)C)cc(OC)c1OC [Compound 248]	40 µg	> 0.1%	0.02%
Cc1cccc(N=C(OCc2cccc(Oc3ccccc3)c2)C(C)C)c1C [Compound 249]	36 µg	0.0365%	0.0025%
Cc1ccc(C)c(N=C(OCc2cccc(Oc3ccccc3)c2)C(C)C)c1 [Compound 250]	38 µg	0.03%	0.004%
CC(C)C(=Nc1ccc(Br)c(Br)c1)OCc1cccc(Oc2ccc(F)cc2)c1 [Compound 251]	25 µg	0.06%	0.0005%
